Experimental data reported in patent US20220362353A1, “DRUG COMBINATION FOR PREVENTING OR TREATING IRRITABLE BOWEL SYNDROME” (GUANGZHOU CENTURY CLINICAL RESEARCH CO., LTD, priority 2019, published 2022).

How the values were obtained:
[1] = test system: irritable bowel syndrome model animals; assay: Electromyography (EMG) test of external oblique abdominal muscles after colorectal distension; format: in vivo, SD rats (Sprague-Dawley rats); conditions: for AUC (%) of EMG of colorectal distension at different pressures (mean ± SD): 3 months old, after 1-month daily gavage, normalized to average baseline amplitude (100%)
Protocol: In this example, the irritable bowel syndrome model was induced by daily applying colorectal distension as a stimulating factor to neonatal SD rats (Sprague-Dawley rats) from 8 days old to 21 days old. This model animal had visceral hypersensitivity of irritable bowel syndrome and without colonitis and mucosal injury. Colorectal distension stimulation was not given any more from 21 days old to 8 weeks old. A test drug or placebo was administered daily by gavage from 8 weeks old to 3 months old. On the 8 weeks old (before the beginning of the 1-month drug administration period) and about 3 months old (after the end of the 1-month drug administration period), behavioral and neural responses of rats to colorectal distention stimulation were tested by an abdominal wall withdrawal reflex test and an electromyography test. 8-day-old neonatal male SD rats with normal body weight were exposed to a 12:12 hr light-dark cycle. Every 12 neonatal rats and 1 adult female rat were co-bred with rat milk until 25 days old. Then every 4 neonatal rats were fed in the same cage, and they were allowed to eat and drink freely. The SD rats were randomly divided into a normal control group, a model group, a dosmalfate group, a lysozyme group, a first combination group (a dosage ratio of dosmalfate to lysozyme was 0.05:1), a second combination group (a dosage ratio of dosmalfate to lysozyme was 0.1:1), a third combination group (a dosage ratio of dosmalfate to lysozyme was 10:1), and a fourth combination group (a dosage ratio of dosmalfate to lysozyme was 20:1), and 12 animals were assigned to each group. Except for normal control group, colorectal distension (CRD) stimulation was applied to the rats in other groups every day from 8 days old to 21 days old to induce irritable bowel syndrome. The concrete operation method was as follows: a flexible balloon (with a polytetrafluoroethylene catheter; the balloon should be inflated overnight before the experiment so that it has better compliance) made of the fingers of surgical gloves, was smeared with vaseline, inserted from the anus of the rat to the colon and then fixed at the tail distanced away from the anus by 2 cm. The balloon was connected with a valve via the catheter, and the valve was additionally connected with a sphygmomanometer. Rats were placed in small plastic cages to restrict their turning and acclimatized for 30 minutes. The balloon was slowly inflated to 60 mm Hg with the sphygmomanometer, and deflated after stimulation for 20 seconds; the stimulation was repeated twice within 1 hour (with an interval of 30 minutes each time). Except for normal control group and model group, test drugs (wetted in 0.5% sodium carboxymethyl cellulose solution) were administrated to the rats in the other groups by gavage daily from 8 weeks old to 3 months old, and the dosage was 8 ml. The visceral hypersensitivity (neural response) of rats to colorectal distension was quantified by measuring the electromyographic activity of external oblique abdominal muscles. When the rats in each group were 3 months old (after the end of the 1-month drug administration period), they were subjected to abdominal wall withdrawal reflex test followed by EMG test after abdominal wall withdrawal reflex test. On the second day when 3-month-old rats in each group were subjected to abdominal wall withdrawal reflex test, an appropriate amount of pentobarbital solution (50 mg/ml) was injected into the abdominal cavities of the rats, and the rats were fully anesthetized. The hairs on the lower abdomen and the back of the neck were cut, a needle electrode (tungsten microelectrode) was implanted into the left side of the abdomen of the rat, fixed in the muscle layer of the external oblique abdominal muscle, and the electrode wire was crossed through the subcutaneous of the left side of the rat to a small incision at the rear neck and out of the small incision. […]

[2] = test system: irritable bowel syndrome model animals; assay: Abdominal withdrawal reflex (AWR) test after colorectal distension; format: in vivo, SD rats (Sprague-Dawley rats); conditions: for Abdominal withdrawal reflex scores of colorectal distension at different pressures (mean ± SD): 3 months old, after 1-month daily gavage, score 0-4
Protocol: In this example, the irritable bowel syndrome model was induced by daily applying colorectal distension as a stimulating factor to neonatal SD rats (Sprague-Dawley rats) from 8 days old to 21 days old. This model animal had visceral hypersensitivity of irritable bowel syndrome and without colonitis and mucosal injury. Colorectal distension stimulation was not given any more from 21 days old to 8 weeks old. A test drug or placebo was administered daily by gavage from 8 weeks old to 3 months old. On the 8 weeks old (before the beginning of the 1-month drug administration period) and about 3 months old (after the end of the 1-month drug administration period), behavioral and neural responses of rats to colorectal distention stimulation were tested by an abdominal wall withdrawal reflex test and an electromyography test. 8-day-old neonatal male SD rats with normal body weight were exposed to a 12:12 hr light-dark cycle. Every 12 neonatal rats and 1 adult female rat were co-bred with rat milk until 25 days old. Then every 4 neonatal rats were fed in the same cage, and they were allowed to eat and drink freely. The SD rats were randomly divided into a normal control group, a model group, a dosmalfate group, a lysozyme group, a first combination group (a dosage ratio of dosmalfate to lysozyme was 0.05:1), a second combination group (a dosage ratio of dosmalfate to lysozyme was 0.1:1), a third combination group (a dosage ratio of dosmalfate to lysozyme was 10:1), and a fourth combination group (a dosage ratio of dosmalfate to lysozyme was 20:1), and 12 animals were assigned to each group. Except for normal control group, colorectal distension (CRD) stimulation was applied to the rats in other groups every day from 8 days old to 21 days old to induce irritable bowel syndrome. The concrete operation method was as follows: a flexible balloon (with a polytetrafluoroethylene catheter; the balloon should be inflated overnight before the experiment so that it has better compliance) made of the fingers of surgical gloves, was smeared with vaseline, inserted from the anus of the rat to the colon and then fixed at the tail distanced away from the anus by 2 cm. The balloon was connected with a valve via the catheter, and the valve was additionally connected with a sphygmomanometer. Rats were placed in small plastic cages to restrict their turning and acclimatized for 30 minutes. The balloon was slowly inflated to 60 mm Hg with the sphygmomanometer, and deflated after stimulation for 20 seconds; the stimulation was repeated twice within 1 hour (with an interval of 30 minutes each time). Except for normal control group and model group, test drugs (wetted in 0.5% sodium carboxymethyl cellulose solution) were administrated to the rats in the other groups by gavage daily from 8 weeks old to 3 months old, and the dosage was 8 ml. The abdominal wall withdrawal reflex test was used to detect behavioral responses of rats to colorectal distension stimulation. This test was performed when rats in respective groups were 8 weeks old (before the start of the 1-month drug administration period) and 3 months old (after the end of the 1-month drug administration period). The rats were fasted overnight before undergoing the abdominal wall withdrawal reflex test, so as to reduce gastrointestinal contents. During the test, a flexible balloon (with a thin-walled polytetrafluoroethylene catheter; the balloon should be inflated overnight before the experiment so that it has better compliance) made of the fingers of surgical gloves, was smeared with vaseline and inserted from the anus of the rat by 7 cm to the colon and fixed at the caudal point by 2 cm distanced away from the anus. The balloon was connected with the valve via the catheter, and the valve was additionally connected with a sphygmomanometer. Rats were placed in small plastic cages to restrict their turning and acclimatized for 30 minutes. […]

| Substance | AUC (%) of EMG of colorectal distension at different pressures (mean ± SD) ([1]; 20 mm Hg) [%] | AUC (%) of EMG of colorectal distension at different pressures (mean ± SD) ([1]; 40 mm Hg) [%] | AUC (%) of EMG of colorectal distension at different pressures (mean ± SD) ([1]; 60 mm Hg) | Abdominal withdrawal reflex scores of colorectal distension at different pressures (mean ± SD) ([2]; 20 mm Hg) | Abdominal withdrawal reflex scores of colorectal distension at different pressures (mean ± SD) ([2]; 40 mm Hg) | Abdominal withdrawal reflex scores of colorectal distension at different pressures (mean ± SD) ([2]; 60 mm Hg) | EMG test result compared with model group, in words ([1]; after administration) | abdominal wall withdrawal reflex values compared with model group, in words ([2]; after administration) |
| --- | --- | --- | --- | --- | --- | --- | --- | --- |
| diosmin heptadiene (bisulfate) aluminum complex [Dosmalfate, reference compound] | 332 ± 39 | 445 ± 99 | 644 ± 117 ^ % | 2.25 ± 0.45 | 2.56 ± 0.30 | 3.64 ± 0.30 |  |  |
| Lysozyme | 303 ± 36 | 394 ± 60 | 601 ± 60 ^ % | 2.11 ± 0.33 | 2.69 ± 0.41 | 3.56 ± 0.36 | no significant difference | no significant difference |
